{"source": "paper PMC11881906", "about": "“Development of xanthone derivatives as effective broad-spectrum antimicrobials: Disrupting cell wall and inhibiting DNA synthesis” (Science Advances, 2025)", "test_system": "E. coli ATCC 25922", "assay": "RNA-seq transcriptome response", "type": "cell-based, Escherichia coli", "details": "4× MIC, 2 hours", "method": "After exposure, 1-ml aliquots of cells were immediately pelleted at 4°C by centrifugation for 2 min at 2000 rpm. The supernatants were removed and immediately frozen in liquid nitrogen. The samples were stored at −80°C for later total RNA isolation. Total RNA was extracted using the bacterial RNA kit (Omega Bio-Tek, USA) according to the manufacturer’s instructions. The RNA integrity number values were obtained to assess RNA quality using an Agilent Genomics 2200 Tape Station instrument.\nA total amount of 2 to 5 ng of the RNA per sample was executed as the input material to construct each cDNA library for RNA-seq using the NEBNext Ultra Directional RNA Library prep kit from Illumina. The quality of the resulting libraries was checked using Agilent High Sensitivity DNA chips to ensure proper library size distribution and the absence of small adapters.\nRead mapping was aligned using Bowtie2 ([74]). HTSeq v0.6.1 was used for quantification of expression levels ([75]). DESeq2 on the R package (v1.12.4) was used to calculate DEGs. Differential expression was computed using edgeR: exactTest for each treatment versus the untreated control ([76]). The E. coli database used for mapping was GCF_017357505.1_ASM1735750v1_genomic.fna. Both the GO and KEGG (KEGG Ortholog database) enrichment analyses were done with the Fisher’s exact test. All P values were adjusted with the Benjamini-Hochberg procedure to generate false discovery rates (adjusted P values). GO enrichment analysis was carried out using the clusterProfiler package on the R platform ([77]). KEGG pathway mapping and figure generation were performed with the PathView website ([78]). COG of protein databases were searched with an E value of 1e^-5. For hierarchal clustering analysis of gene expression, the gene expression levels were normalized to z scores of log10 (FPKM + 1), where FPKM is fragments per kilobase per million. For hierarchal clustering analysis of the regulation of transcription factors, the unweighted pair group method with arithmetic mean (UPGMA) method was used as the clustering method. […] Volcano plots were generated by plot_volcano from soothsayer (https://github.com/jolespin/soothsayer) in Python v.3.6.6. Directed networks were constructed and plotted using NetworkX and Matplotlib Python packages, respectively. Hierarchical clustering analysis and heatmap calculation were performed with the pheatmap package on the R platform. The umap package on the R platform was used for uniform manifold approximation and projection (UMAP) analysis of FPKM vectors of each transcriptome. The figures were created via the ggplot2 package ([79]).", "data": [{"smiles": "CC(C)=CCOc1cc(OCCCNC(=N)N)cc2oc3cc(OCCCNC(=N)N)ccc3c(=O)c12", "note": "[XT17]", "values": [{"measurement": "genes expressed", "result": 4617, "unit": "genes"}, {"measurement": "Log2FC clbN (colibactin non-ribosomal peptide synthetase ClbN)", "setting": "vs untreated", "result": -2.7305}, {"measurement": "Log2FC cspE (transcription antiterminator/RNA stability regulator CspE)", "setting": "vs untreated", "result": -4.5456}, {"measurement": "Log2FC dnaE (DNA polymerase III subunit alpha)", "setting": "vs untreated", "result": 2.4033}, {"measurement": "Log2FC dnaN (DNA polymerase III subunit beta)", "setting": "vs untreated", "result": 2.4370}, {"measurement": "Log2FC dnaQ (DNA polymerase III subunit epsilon)", "setting": "vs untreated", "result": 2.6769}, {"measurement": "Log2FC dnaT (primosomal protein DnaT)", "setting": "vs untreated", "result": 1.8873}, {"measurement": "Log2FC dnaX (DNA polymerase III subunit gamma/tau)", "setting": "vs untreated", "result": 1.3272}, {"measurement": "Log2FC gyrA (DNA topoisomerase (ATP-hydrolyzing) subunit A)", "setting": "vs untreated", "result": 2.7733}, {"measurement": "Log2FC gyrB (DNA topoisomerase (ATP-hydrolyzing) subunit B)", "setting": "vs untreated", "result": 2.8529}, {"measurement": "Log2FC holB (DNA polymerase III subunit delta')", "setting": "vs untreated", "result": 3.5242}, {"measurement": "Log2FC holC (DNA polymerase III subunit chi)", "setting": "vs untreated", "result": 1.8432}, {"measurement": "Log2FC holD (DNA polymerase III subunit psi)", "setting": "vs untreated", "result": 2.6144}, {"measurement": "Log2FC parC (DNA topoisomerase IV subunit A)", "setting": "vs untreated", "result": 2.5193}, {"measurement": "Log2FC parE (DNA topoisomerase IV subunit B)", "setting": "vs untreated", "result": 2.3205}, {"measurement": "Log2FC priA (primosomal protein N')", "setting": "vs untreated", "result": 3.3285}, {"measurement": "Log2FC priB (primosomal replication protein N)", "setting": "vs untreated", "result": 5.8981}, {"measurement": "Log2FC priC (primosomal replication protein N'')", "setting": "vs untreated", "result": 2.6334}, {"measurement": "Log2FC recA (recombinase RecA)", "setting": "vs untreated", "result": 5.7854}, {"measurement": "Log2FC recB (exodeoxyribonuclease V subunit beta)", "setting": "vs untreated", "result": 2.0328}, {"measurement": "Log2FC recC (exodeoxyribonuclease V subunit gamma)", "setting": "vs untreated", "result": 2.4556}, {"measurement": "Log2FC recF (DNA replication/repair protein RecF)", "setting": "vs untreated", "result": 1.6106}, {"measurement": "Log2FC recG (ATP-dependent DNA helicase RecG)", "setting": "vs untreated", "result": 1.6673}, {"measurement": "Log2FC recJ (single-stranded-DNA-specific exonuclease RecJ)", "setting": "vs untreated", "result": 4.2947}, {"measurement": "Log2FC recO (DNA repair protein RecO)", "setting": "vs untreated", "result": 2.8669}, {"measurement": "Log2FC recR (recombination mediator RecR)", "setting": "vs untreated", "result": 2.2758}, {"measurement": "Log2FC ruvA (Holliday junction branch migration protein RuvA)", "setting": "vs untreated", "result": 3.9191}, {"measurement": "Log2FC ruvB (Holliday junction branch migration DNA helicase RuvB)", "setting": "vs untreated", "result": 4.1938}, {"measurement": "Log2FC ruvC (crossover junction endodeoxyribonuclease RuvC)", "setting": "vs untreated", "result": 2.7878}, {"measurement": "Log2FC ssb1 (single-stranded DNA-binding protein SSB1)", "setting": "vs untreated", "result": 3.2652}, {"measurement": "down-regulated genes", "setting": "vs untreated", "result": 348, "unit": "genes"}, {"measurement": "up-regulated genes", "setting": "vs untreated", "result": 2885, "unit": "genes"}, {"measurement": "differentially expressed genes", "setting": "vs untreated, P < 0.05, absolute log2 fold change > 1", "result": 3233, "unit": "genes"}]}]}
